Assay results as given in PubChem BioAssay AID192 (DTP/NCI, 2004).
Several values for one entry are separate records, joined by “and”; a condition that tells them apart may be missing. Identical values can stand only once. Toxic doses and inconclusive results are not listed. How the source made its calls: active means survival T/C of 150% or more; inactive means T/C below 125% in these data.

System: BDF1 mice, B16 melanoma ip, median survival T/C
Test: NCI In Vivo Anticancer Drug Screen. Data for tumor model B16 Melanoma (intraperitoneal) in B6D2F1 (BDF1) mice
Details: endpoint: median survival time, higher = longer survival
Summary of the method: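 Mice with transplantable tumors; drug vs vehicle groups; endpoint survival or tumor size; value = T/C.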

[1] = dose: 100.0 mg/kg/injection, schedule: Q01DX009 (ip), vehicle: Klucel (hydroxypropylcellulose) (HPC)
[2] = dose: 200.0 mg/kg/injection, schedule: Q01DX009 (ip), vehicle: Klucel (hydroxypropylcellulose) (HPC)
[3] = dose: 400.0 mg/kg/injection, schedule: Q01DX009 (ip), vehicle: Klucel (hydroxypropylcellulose) (HPC)
[4] = dose: 100.0 mg/kg/injection, schedule: Q01DX009 (ip), vehicle: saline
[5] = dose: 200.0 mg/kg/injection, schedule: Q01DX009 (ip), vehicle: saline
[6] = dose: 100.0 mg/kg/injection, schedule: Q04DX003 (ip), vehicle: Klucel (hydroxypropylcellulose) (HPC)
[7] = dose: 200.0 mg/kg/injection, schedule: Q04DX003 (ip), vehicle: Klucel (hydroxypropylcellulose) (HPC)
[8] = dose: 400.0 mg/kg/injection, schedule: Q04DX003 (ip), vehicle: Klucel (hydroxypropylcellulose) (HPC)
[9] = dose: 50.0 mg/kg/injection, schedule: Q01DX009 (ip), vehicle: Klucel (hydroxypropylcellulose) (HPC)
[10] = dose: 50.0 mg/kg/injection, schedule: Q01DX009 (ip), vehicle: saline

Measured: T/C

CCCCCCCCCCCCCCCCCC[N+](C)(C)C (tested in a mixture with another compound)
inactive: dose: 0.1 mg/kg/injection, schedule: Q01DX009 (ip), vehicle: saline sonified 90 % of control | dose: 2.0 mg/kg/injection, schedule: Q01DX009 (ip), vehicle: saline sonified 86 % of control | dose: 4.0 mg/kg/injection, schedule: Q01DX009 (ip), vehicle: saline sonified 86 % of control

Clc1ccc(/C(=[C](\[Hg]/[C](=C(\c2ccccc2)c2ccc(Cl)cc2)c2ccccc2)c2ccccc2)c2ccccc2)cc1
inactive: [1] 105 % of control | [2] 100 % of control | [3] 94 % of control

Clc1ccc2c(c1)C(N1CCOCC1)c1cc(Cl)cc(Cl)c1-2 (stereo not given)
inactive: [4] 102 % of control | [5] 95 % of control | dose: 400.0 mg/kg/injection, schedule: Q01DX009 (ip), vehicle: saline 90 % of control | dose: 800.0 mg/kg/injection, schedule: Q01DX009 (ip), vehicle: saline 90 % of control

COc1ccc(/C=C(\NC(C)=O)C(=O)O)cc1
inactive: [6] 97 % of control | [7] 105 % of control | [8] 91 % of control

COc1ccc(-n2c(=S)[nH]c3ccccc3c2=O)cc1
inactive: [1] 97 % of control | [2] 88 % of control

O=C(Nc1ccccc1Cl)Oc1ccccc1Cc1ccccc1
inactive: [6] 100 % of control | [7] 106 % of control | [8] 93 % of control

c1cc2c(c(NC3=NCCCS3)c1)CCCC2
inactive: [9] 106 % of control | [1] 96 % of control | [2] 96 % of control

CNc1ccc(O)cc1
inactive: dose: 6.25 mg/kg/injection, schedule: Q01DX009 (ip), vehicle: saline with Tween-80 92 % of control | dose: 12.5 mg/kg/injection, schedule: Q01DX009 (ip), vehicle: saline with Tween-80 92 % of control | dose: 25.0 mg/kg/injection, schedule: Q01DX009 (ip), vehicle: saline with Tween-80 95 % of control

CC1CC(NC(=O)/C=C/C(=O)O)CC(C)(C)C1 (stereo not given)
inactive: [1] 93 % of control | [2] 95 % of control | [3] 93 % of control

Nc1ccccc1SC1CC(=O)N(c2cccc(Cl)c2)C1=O (stereo not given)
inactive: [1] 95 % of control | [2] 90 % of control

NCC(=O)NC(CCCN=C(N)N)C(=O)O (stereo not given)
inactive: [10] 103 % of control | [4] 98 % of control | [5] 92 % of control

O=S(=O)(O)O
inactive: dose: 6.25 mg/kg/injection, schedule: Q01DX009 (ip), vehicle: Klucel (hydroxypropylcellulose) (HPC) 111 % of control | dose: 12.5 mg/kg/injection, schedule: Q01DX009 (ip), vehicle: Klucel (hydroxypropylcellulose) (HPC) 106 % of control | dose: 25.0 mg/kg/injection, schedule: Q01DX009 (ip), vehicle: Klucel (hydroxypropylcellulose) (HPC) 99 % of control | [9] 93 % of control

OCCN1CCN(CCCN2c3ccccc3C=Cc3ccccc32)CC1
inactive: dose: 3.12 mg/kg/injection, schedule: Q01DX009 (ip), vehicle: saline 97 % of control | dose: 3.12 mg/kg/injection, schedule: Q04DX003 (ip), vehicle: saline 105 % of control | dose: 6.25 mg/kg/injection, schedule: Q01DX009 (ip), vehicle: saline 110 % of control | dose: 12.5 mg/kg/injection, schedule: Q01DX009 (ip), vehicle: saline 100 % of control | dose: 12.5 mg/kg/injection, schedule: Q04DX003 (ip), vehicle: saline 107 % of control | dose: 25.0 mg/kg/injection, schedule: Q01DX009 (ip), vehicle: saline 95 % of control | dose: 25.0 mg/kg/injection, schedule: Q04DX003 (ip), vehicle: saline 122 % of control | [10] 95 % of control | dose: 50.0 mg/kg/injection, schedule: Q04DX003 (ip), vehicle: saline 115 % of control

COc1ccc2c(c1O)-c1cccc3c1[C@@H](C2)N(CCCl)CC3
inactive: dose: 4.0 mg/kg/injection, schedule: Q01DX009 (ip), vehicle: saline 91 % of control and 116 % of control | dose: 8.0 mg/kg/injection, schedule: Q01DX009 (ip), vehicle: saline 97 % of control and 120 % of control | dose: 16.0 mg/kg/injection, schedule: Q01DX009 (ip), vehicle: saline 97 % of control and 111 % of control

O=c1cc(-c2ccccc2)[nH]c(-c2ccccc2)c1
inactive: dose: 8.0 mg/kg/injection, schedule: Q01DX009 (ip), vehicle: saline with Tween-80 95 % of control | dose: 18.0 mg/kg/injection, schedule: Q01DX009 (ip), vehicle: saline with Tween-80 97 % of control
